The text below walks through data of patent US20250257075A1, “MACROCYCLIC INHIBITORS OF KRAS FOR THE TREATMENT OF CANCER” (Hoffmann-La Roche Inc., priority 2022, published 2025).

The test system of one data set is human hepatocytes. Kind of data set: Human hepatocyte stability assay. It counts as in vitro ADME. Conditions: for Clearance Category: human hepatocytes. The protocol:
The hepatocyte stability assay measures the rate of disappearance of a compound from incubations with cryopreserved suspension hepatocytes from human. Positive controls, including Midazolam, Raloxifene and Dextromethorphan, are included in every experiment. Incubations consist of 1 μM tested compound and suspension of human hepatocytes (1×10^6 cells/mL) in supplemented Williams' E Medium with 10% FBS and 0.5% Penicillin-streptomycin. The hepatocyte suspension was incubated with intermittent shaking 900 rpm at 37° C., in a 5% CO2 incubator. The reaction was stopped by adding methanol containing internal standard (2 μM Tolbutamide) at 2, 10, 20, 40, 60 and 120 minutes after compound addition, depletion of the parent compound was monitored by LC-MS/MS analysis.

Data set [1] deals with KRAS G12D binding to BRAF (Homo sapiens, UniProt P01116+P62937, G12D). In words: KRAS-BRAF with CYPA (500 nM) interaction assay (TR-FRET), G12D. It counts as biochemical. To be noted: 3 hours. Summed up: (§1)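 TR-FRET (Ex320 nm, Em 665/615 nm) measured compound- or compound-CYPA-dependent disruption of KRAS-BRAF complex, with CYPA at 500 nM. Disruption scored as decrease in TR-FRET ratio versus DMSO control wells.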
KRAS G12D binding to BRAF, sequence (P01116 1-188 isoform P01116-2 G12D): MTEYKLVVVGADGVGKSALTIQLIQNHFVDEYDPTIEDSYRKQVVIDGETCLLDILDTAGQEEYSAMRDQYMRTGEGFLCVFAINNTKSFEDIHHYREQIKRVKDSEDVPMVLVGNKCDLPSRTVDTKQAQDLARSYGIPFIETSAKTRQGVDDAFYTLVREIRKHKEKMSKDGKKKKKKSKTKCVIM
KRAS G12D binding to BRAF, sequence (P62937 whole entry): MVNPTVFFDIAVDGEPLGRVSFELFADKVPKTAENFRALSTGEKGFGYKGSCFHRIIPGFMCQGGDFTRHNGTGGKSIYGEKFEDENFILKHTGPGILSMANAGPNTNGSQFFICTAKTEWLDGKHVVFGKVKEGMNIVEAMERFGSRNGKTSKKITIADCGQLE
(In TR-FRET formats the signal depends on donor and acceptor labels being close together.)

Data set [2] can be described thus: GSH Reaction Rates (inherent GSH reactivity). To be noted: for T½(hour) in GSH: pH 7.4, up to 6 h. The data set is classed as in vitro ADME. From the text: Glutathione (GSH) is a tripeptide found in most of the tissues, especially in high concentrations in the liver, and plays critical roles in protecting cells from oxidative damage and the toxicity of xenobiotic electrophiles, and maintaining redox homeostasis. More specifically, glutathione conjugation helps contribute to detoxification by binding electrophiles that could otherwise bind to proteins or nucleic acids, resulting in cellular damage and genetic mutations.
Many potentially toxic electrophilic xenobiotics and some endogenous compounds are detoxified by conversion to the corresponding glutathione S-conjugate, which consumes inherent GSH and then diminishes detoxification effects. Some drugs and halogenated workplace/environmental contaminants are bioactivated by this mechanism.
Therefore Strategy to minimize the GSH metabolism is very critical. Short T1/2 in inherent GSH reaction indicated high GSH reaction rate. Thus T1/2 in inherent GSH reaction assay was determined for the screening of candidates.
Reference compounds and compounds of this invention potentially could form conjugation with GSH either through halogenated moieties substitution reaction or direct Michael addition reaction. This test was therefore performed to check GSH reactivity of listed compounds.
For inherent GSH reactivity determination, compounds at 1 μM were incubated at 37° C. with and without 5 mM GSH for 0, 0.5, 1, 2, 4 and 6 h in 100 mM potassium phosphate buffer at pH 7.4. At the end of the designated time points, samples were quenched with acetonitrile containing 10 mM N-ethylmaleimide and an internal standard. Quenched samples were centrifuged, and supernatants were analyzed by LC-MS/MS for compound quantification.

The test system of data set [3] is NCI-H358 cells (KRAS G12C). Kind of data set: Cell viability assay, G12C. The data set is classed as cell-based, human. To be noted: Homo sapiens; NCI-H358, 72 hrs, Cell Counting Kit-8. An outline of the steps: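 Cells seeded at 5,000/well (NCI-H358) or 2,000/well (AGS, SW620), treated next day at 0.5% final DMSO for 72 h. Viability read by CCK-8 (OD450 minus OD650) after 2 h; IC50 from 4-parameter sigmoidal fit.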

Data set [4] has as its target KRAS G12V binding to BRAF (Homo sapiens, UniProt P01116+P62937, G12V). Kind of data set: KRAS-BRAF with CYPA (500 nM) interaction assay (TR-FRET), G12V. The data set is classed as biochemical. To be noted: 3 hours. Summed up: as §1
Data set [5] relates to phosphorylation of ERK, KRAS G12C in NCI-H358 cells. In words: pERK inhibition assay, G12C. The data set is classed as cell-based, human. To be noted: Homo sapiens; NCI-H358, 4 hours of incubation. Summed up:
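NCI-H358 (G12C), AGS (G12D) and SW620 (G12V) cells were seeded overnight at 30,000, 20,000 and 30,000 cells/well, respectively. They were then treated 4 h with compound (0.5% DMSO final), fixed, and methanol-permeabilized. pERK was detected by in-cell ELISA (anti-pERK/HRP, TMB, OD450); IC50 from a 4-parameter sigmoidal fit.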

[6] abbreviates: 1 μM compound, 5 mM GSH, 37° C., pH 7.4, 6 hr.
[7] abbreviates: 1 μM compound, 5 mM GSH, 37° C.
The mark [8] stands for this setting: 1 μM compound, human hepatocytes 1×10^6 cells/mL.

A value given as a limit tells only on which side of the number the result lay.

KRAS G12V binding to BRAF, sequence (P01116 1-188 isoform P01116-2 G12V): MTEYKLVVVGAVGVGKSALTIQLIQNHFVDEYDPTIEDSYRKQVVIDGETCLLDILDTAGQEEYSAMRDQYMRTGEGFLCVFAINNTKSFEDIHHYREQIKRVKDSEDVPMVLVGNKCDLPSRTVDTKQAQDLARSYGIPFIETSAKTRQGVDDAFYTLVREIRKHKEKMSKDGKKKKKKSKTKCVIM
KRAS G12V binding to BRAF, sequence (P62937 whole entry): as the sequence (P62937 whole entry) above

Usually IC50 stands for the concentration needed to halve the response being measured. Low values mean greater potency, high ones weaker potency. Consider `CO[C@@H](C)c1ncc(N2CCN(C)CC2)cc1-c1c2c3cc(c(F)cc3n1CC(F)(F)F)-c1csc(n1)C[C@H](NC(=O)[C@H](C(C)C)N(C)C(=O)[C@H]1C[C@@H](C#CC(F)(F)F)C1)C(=O)N1CCC[C@H](N1)C(=O)OCC(C)(C)C2` (atropisomer, axis not shown; (M)) [Example 3, cis-N-[(1S)-1-[[(7S,13S)-24-fluoro-(20M)-20-[2-[(1S)-1-methoxyethyl]-5-(4-methylpiperazin-1-yl)-3-pyridyl]-17,17-dimethyl-8,14-dioxo-21-(2,2,2-trifluoroethyl)-15-oxa-4-thia-9,21,27,28-tetrazapentacyclo[17.5.2.1^2,5.1^9,13.0^22,26]octacosa-1(25),2,5(28),19,22(26),23-hexaen-7-yl]carbamoyl]-2-methyl-propyl]-N-methyl-3-(3,3,3-trifluoroprop-1-ynyl)cyclobutanecarboxamide], for which, in the data set on human hepatocytes (human, 1 μM), the “CL_hep (Human)” value is 3.6 mL/min/kg. Moreover, the IC50 was over 10 µM in data set [1], 0.003 µM in data set [3], over 10 µM in data set [4] and 0.007 µM in data set [5]. Also, the “Remaining at 6 hr in GSH (%)” value in data set [2] (setting [6]) came to 100%. Also, in data set [2] (setting [7]), the “T½(hour) in GSH” value is given as “stable (If % depletion after 6 hour incubation is less than 20%, compounds were reported as stable)”.
On to `CCn1c(-c2cc(N3CCN(CC(F)(F)F)CC3)cnc2[C@H](C)OC)c2c3cc(c(F)cc31)-c1csc(n1)C[C@H](NC(=O)[C@H](C(C)C)N(C)C(=O)[C@H]1C[C@@H](C#CC(F)(F)F)C1)C(=O)N1CCC[C@H](N1)C(=O)OCC(C)(C)C2` (atropisomer, axis not shown; (M)) [Example 8, cis-N-[(1S)-1-[[(7S,13S)-21-ethyl-24-fluoro-(20M)-20-[2-[(1S)-1-methoxyethyl]-5-[4-(2,2,2-trifluoroethyl)piperazin-1-yl]-3-pyridyl]-17,17-dimethyl-8,14-dioxo-15-oxa-4-thia-9,21,27,28-tetrazapentacyclo[17.5.2.1^2,5.1^9,13.0^22,26]octacosa-1(25),2,5(28),19,22(26),23-hexaen-7-yl]carbamoyl]-2-methyl-propyl]-N-methyl-3-(3,3,3-trifluoroprop-1-ynyl)cyclobutanecarboxamide], for which the “CL_hep (Human)” value in the data set with human hepatocytes (setting [8]) is 2.9 mL/min/kg. The “Clearance Category” value in the data set with human hepatocytes is recorded as “low (CL_hep (mL/min/kg)<6.96 is low clearance)”. Besides, the IC50 in data set [1] is over 10 µM; in data set [3] it was 0.019 µM; in data set [4], over 10 µM; in data set [5] it was 0.005 µM. In data set [2] (setting [6]), the “Remaining at 6 hr in GSH (%)” value came out at 90%. Further, the “T½(hour) in GSH” value in data set [2] (setting [7]) is listed as “stable (If % depletion after 6 hour incubation is less than 20%, compounds were reported as stable)”.
With `CCn1c(-c2cc(N3CCOCC3)cnc2[C@H](C)OC)c2c3cc(c(F)cc31)-c1csc(n1)C[C@H](NC(=O)[C@H](C(C)C)N(C)C(=O)[C@H]1C[C@@H](C#CC(F)(F)F)C1)C(=O)N1CCC[C@H](N1)C(=O)OCC(C)(C)C2` (atropisomer, axis not shown; (M)) [Example 11, cis-N-[(1S)-1-[[(7S,13S)-21-ethyl-24-fluoro-(20M)-20-[2-[(1S)-1-methoxyethyl]-5-morpholino-3-pyridyl]-17,17-dimethyl-8,14-dioxo-15-oxa-4-thia-9,21,27,28-tetrazapentacyclo[17.5.2.1^2,5.1^9,13.0^22,26]octacosa-1(25),2,5(28),19,22(26),23-hexaen-7-yl]carbamoyl]-2-methyl-propyl]-N-methyl-3-(3,3,3-trifluoroprop-1-ynyl)cyclobutanecarboxamide], the “CL_hep (Human)” value with human hepatocytes (setting [8]) worked out at 3.3 mL/min/kg. Moreover, the “Clearance Category” value with human hepatocytes is “low (CL_hep (mL/min/kg)<6.96 is low clearance)”. The IC50 in data set [1] was over 10 µM; in data set [3], 0.002 µM; in data set [4], over 10 µM; in data set [5], 0.011 µM. Besides, in data set [2] (6 h, 1 μM, pH 7.4), the “Remaining at 6 hr in GSH (%)” value is listed as 94%.
A word on the half-life: it is how long it takes for the measured level to halve. A low value points to fast loss. For the compound `CC#CC(=O)N1CC[C@H](C(=O)N(C)[C@H](C(=O)N[C@H]2Cc3nc(cs3)-c3ccc4c(c3)c(c(-c3cccnc3[C@H](C)OC)n4CC)CC(C)(C)COC(=O)[C@@H]3CCCN(N3)C2=O)C(C)C)C1` [Example A168, reference compound], the “CL_hep (Human)” value in the data set on human hepatocytes (setting [8]) is 8.8 mL/min/kg. Besides, the “Clearance Category” value in the data set on human hepatocytes was “medium (16.24<CL_hep (mL/min/kg) >6.96 is medium clearance)”. The IC50 in data set [1] was over 10 µM; in data set [3], 0.011 µM; in data set [4], 3.62 µM; in data set [5], 0.053 µM. The “Remaining at 6 hr in GSH (%)” value in data set [2] (6 h, 1 μM, pH 7.4) was determined as 77%. Also, in data set [2] (pH 7.4), the half-life at 1 μM was 28.9 h.
